Assay results as given in US20040014215A1, “Synchronised arabidopsis cell suspensions and uses thereof” (priority 2000, published 2004).

What was measured:
[1] = tested on: cell cycle; conditions: phase of the cell cycle at which cells are arrested; cited from earlier work
[2] = tested on: Arabidopsis cell suspension MM2d; assay: Aphidicolin block/release of MM2d: proportion of G1, S and G2 cells by flow cytometry; type: cell-based, Arabidopsis thaliana
Procedure: The level of synchronicity of the Arabidopsis cell suspension culture MM1 was analysed by flow cytometry. The cell pellet from 5 ml of cell suspension culture was frozen in liquid nitrogen. To analyse the DNA content, the High Resolution Kit for Plant ploidy analysis (Type P) (Partec, Cat. No. 06-5-4004) was used, containing solution A (to release cell nuclei) and solution B (to stain DNA with DAPI). A sample of the frozen cell pellet was transferred into a small petri-dish (5 cm diameter), 150 μl of solution A was added, and the sample was carefully chopped with vertical motion of a sharp razor blade. An additional 150 μl of solution A was added, the cell suspension pipetted up and down for several time before leaving for approximately 2 min at RT. The released cell nuclei were filtered through a 50 μm nylon mesh (Partec, CellTrics 50 μm, Cat. No. 06-4-2317) and 1 ml of solution B was added to the filtrate. On average 8200 particles were counted with a flow cytometer (PASIII; Partec GmbH, Germany), using HBO lamp excitation (Partec, mercury lamp HBO 100 long life, 100W) and detection of emission using a blue filter. Cell cycle phases were analysed using Multicycle for Windows (Phoenix Flow Systems, San Diego, Calif.). Flow cytometry results are not corrected for the mitotic cells (which are not measured by this method).
This experiment was carried out as described for Example 1, except that cell line MM2d was used, and the culture conditions throughout the experiment were as described for MM2d in Example 1.
Synchronisation was performed as described in Example 2A, with the exception that before adding aphidicolin, 20 ml of the weekly subcultured cell suspension was transferred into 100 ml fresh MSS-medium in each of 2 separate flasks and cultivated under conditions as described in Example 1 for MM2d. […] Samples were taken at the same time frame for flow cytometry to follow cell cycle transition.
Samples were analysed by flow cytometry to determine the percentage of cells being in G1-, S- and G2M phase. The mitotic index (MI) and labelling index (LI) were independently determined (as described in Example 2A). Results are shown below in table II and in FIG. 1.
Table II. Aphidicolin block/release of Arabidopsis cell suspension MM2d. Data are shown from analysis of samples obtained in the experiment described in Example 2B.

Structure (SMILES): C[C@@]1(CO)[C@H](O)CC[C@@]2(C)[C@H]1CC[C@H]1C[C@@H]3C[C@@]12CC[C@]3(O)CO [aphidicolin]
- cell cycle arrest [1]: G1/early S
- G1 (%) MM2d ([2]; 0 h after aphidicolin removal): 46.9%
- G2 (%) MM2d ([2]; 0 h after aphidicolin removal): 16.4%
- S (%) MM2d ([2]; 0 h after aphidicolin removal): 36.6%
- G1 (%) MM2d ([2]; 1 h after aphidicolin removal): 16.6%
- G2 (%) MM2d ([2]; 1 h after aphidicolin removal): 4.9%
- S (%) MM2d ([2]; 1 h after aphidicolin removal): 78.6%
- G1 (%) MM2d ([2]; 2 h after aphidicolin removal): 21.5%
- G2 (%) MM2d ([2]; 2 h after aphidicolin removal): 5.3%
- S (%) MM2d ([2]; 2 h after aphidicolin removal): 73.2%
- G1 (%) MM2d ([2]; 3 h after aphidicolin removal): 24.8%
- G2 (%) MM2d ([2]; 3 h after aphidicolin removal): 11.2%
- S (%) MM2d ([2]; 3 h after aphidicolin removal): 64.1%
- G1 (%) MM2d ([2]; 4 h after aphidicolin removal): 18.8%
- G2 (%) MM2d ([2]; 4 h after aphidicolin removal): 48.2%
- S (%) MM2d ([2]; 4 h after aphidicolin removal): 33%
- G1 (%) MM2d ([2]; 5 h after aphidicolin removal): 15.1%
- G2 (%) MM2d ([2]; 5 h after aphidicolin removal): 74.8%
- S (%) MM2d ([2]; 5 h after aphidicolin removal): 10.1%
- G1 (%) MM2d ([2]; 6 h after aphidicolin removal): 12.5%
- G2 (%) MM2d ([2]; 6 h after aphidicolin removal): 80.6%
- S (%) MM2d ([2]; 6 h after aphidicolin removal): 6.9%
- G1 (%) MM2d ([2]; 7 h after aphidicolin removal): 10.5%
- G2 (%) MM2d ([2]; 7 h after aphidicolin removal): 89.5%
- S (%) MM2d ([2]; 7 h after aphidicolin removal): 0%
- G1 (%) MM2d ([2]; 8 h after aphidicolin removal): 9%
- G2 (%) MM2d ([2]; 8 h after aphidicolin removal): 91%
- S (%) MM2d ([2]; 8 h after aphidicolin removal): 0%
- G1 (%) MM2d ([2]; 9 h after aphidicolin removal): 7.6%
- G2 (%) MM2d ([2]; 9 h after aphidicolin removal): 92.4%
- S (%) MM2d ([2]; 9 h after aphidicolin removal): 0%
- G1 (%) MM2d ([2]; 10 h after aphidicolin removal): 10.1%
- G2 (%) MM2d ([2]; 10 h after aphidicolin removal): 89.6%
- S (%) MM2d ([2]; 10 h after aphidicolin removal): 0%
- G1 (%) MM2d ([2]; 11 h after aphidicolin removal): 17.2%
- G2 (%) MM2d ([2]; 11 h after aphidicolin removal): 82.8%
- S (%) MM2d ([2]; 11 h after aphidicolin removal): 0%
- G1 (%) MM2d ([2]; 12 h after aphidicolin removal): 27.7%
- G2 (%) MM2d ([2]; 12 h after aphidicolin removal): 72.3%
- S (%) MM2d ([2]; 12 h after aphidicolin removal): 0%
- G1 (%) MM2d ([2]; 13 h after aphidicolin removal): 32.1%
- G2 (%) MM2d ([2]; 13 h after aphidicolin removal): 67.9%
- S (%) MM2d ([2]; 13 h after aphidicolin removal): 0%
- G1 (%) MM2d ([2]; 14 h after aphidicolin removal): 34.3%
- G2 (%) MM2d ([2]; 14 h after aphidicolin removal): 65.7%
- S (%) MM2d ([2]; 14 h after aphidicolin removal): 0%
- G1 (%) MM2d ([2]; 15 h after aphidicolin removal): 40.7%
- G2 (%) MM2d ([2]; 15 h after aphidicolin removal): 59.3%
- S (%) MM2d ([2]; 15 h after aphidicolin removal): 0%
- G1 (%) MM2d ([2]; 16 h after aphidicolin removal): 34.9%
- G2 (%) MM2d ([2]; 16 h after aphidicolin removal): 59.4%
- S (%) MM2d ([2]; 16 h after aphidicolin removal): 5.8%
- G1 (%) MM2d ([2]; 17 h after aphidicolin removal): 40.8%
- G2 (%) MM2d ([2]; 17 h after aphidicolin removal): 52%
- S (%) MM2d ([2]; 17 h after aphidicolin removal): 7.3%
- G1 (%) MM2d ([2]; 18 h after aphidicolin removal): 40.7%
- G2 (%) MM2d ([2]; 18 h after aphidicolin removal): 47.9%
- S (%) MM2d ([2]; 18 h after aphidicolin removal): 11.3%
- G1 (%) MM2d ([2]; 19 h after aphidicolin removal): 38.4%
- G2 (%) MM2d ([2]; 19 h after aphidicolin removal): 47.3%
- S (%) MM2d ([2]; 19 h after aphidicolin removal): 14.4%
- G1 (%) MM2d ([2]; 20 h after aphidicolin removal): 37.7%
- G2 (%) MM2d ([2]; 20 h after aphidicolin removal): 45.5%
- S (%) MM2d ([2]; 20 h after aphidicolin removal): 16.9%
- maximum G2 synchrony ([2]; MM2d, flow cytometry): 90%
- maximum S phase synchrony ([2]; MM2d, flow cytometry): 79%
